In test [1] the target is Alpha-2C adrenergic receptor (Homo sapiens, UniProt P18825). Description: GPCRScan assay: inhibition of Alpha2C. Details: radioligand conc. used [nm] 0.5 – 1.0, parental cells stable MDCK.
For test [2], the target named is 5-hydroxytryptamine receptor 1E (Homo sapiens) (UniProt P28566). Particulars: Compound concentration 10.0 uM.
For test [3], the target named is B1 bradykinin receptor (Homo sapiens) (UniProt P46663). Description: Inhibition of Bradykinin B1 at 10 µM in the Eurofins-Panlabs radioligand binding assay (Eurofins_assay_212510). Particulars: Compound concentration 10.0 uM.
A further test is filed under the species Rattus norvegicus. The test can be described thus: Inhibition of Glutamate, NMDA, Phencyclidine at 10 µM in the Eurofins-Panlabs radioligand binding assay (Eurofins_assay_233000). The format is protein-complex assay. As to conditions: Compound concentration 10.0 uM.
The species entered for the next test is Mus musculus. The test can be described thus: Inhibition of Interleukin IL-1 at 10 µM in the Eurofins-Panlabs radioligand binding assay (Eurofins_assay_243520). Details: ligand concentration 0.1 nM. Particulars: Compound concentration 10.0 uM.
For test [4], the target named is Acetylcholine receptor subunit alpha (Homo sapiens) (UniProt P02708). Description: Inhibition of Nicotinic Acetylcholine D1, Bungarotoxin at 10 µM in the Eurofins-Panlabs radioligand binding assay (Eurofins_assay_258700). As to conditions: Compound concentration 10.0 uM.
The target in test [5] is Platelet-activating factor receptor (Homo sapiens) (UniProt P25105). Description: Inhibition of Platelet Activating Factor (PAF) at 10 µM in the Eurofins-Panlabs radioligand binding assay (Eurofins_assay_265010). As to conditions: Compound concentration 10.0 uM.
The species entered for the next test is Oryctolagus cuniculus. The test can be described thus: Inhibition of Purinergic P2X at 10 µM in the Eurofins-Panlabs radioligand binding assay (Eurofins_assay_268700). It counts as protein assay. As to conditions: Compound concentration 10.0 uM.
The target of test [6] is Sigma non-opioid intracellular receptor 1 (Homo sapiens) (UniProt Q99720). The test can be described thus: Inhibition of Sigma 1 at 10 µM in the Eurofins-Panlabs radioligand binding assay (Eurofins_assay_278110). Details: ligand concentration 8 nM. Particulars: Compound concentration 10.0 uM.
For test [7], the target named is Substance-P receptor (Homo sapiens) (UniProt P25103). Description: Inhibition of Tachykinin NK1 at 10 µM in the Eurofins-Panlabs radioligand binding assay (Eurofins_assay_255520). Details: ligand concentration 0.8 nM. As to conditions: Compound concentration 10.0 uM.
Test [8] concerns the target Adenosine receptor A3 (Homo sapiens) (UniProt P0DMS8). Particulars: Compound concentration 10.0 uM.
In test [9] the target is Beta-1 adrenergic receptor (Homo sapiens) (UniProt P08588). Particulars: Compound concentration 10.0 uM.
Test [10] concerns the target D(3) dopamine receptor (Homo sapiens) (UniProt P35462). Particulars: Compound concentration 10.0 uM.
Test [11] has as its target Estrogen receptor (Homo sapiens) (UniProt P03372). As to conditions: Compound concentration 10.0 uM.
In test [12] the target is GABA-A receptor; anion channel (Rattus norvegicus) (UniProt O09028+P15431+P18506+P18508+P19969+P20236+P23574+P23576+P28471+P28473+P30191+P62813+P63079+P63138+Q91ZM7+Q9ES14). Particulars: Compound concentration 10.0 uM.
Test [13] concerns the target Glutamate NMDA receptor (Rattus norvegicus) (UniProt P35439+Q00959+Q00960+Q00961+Q62645+Q8VHN2+Q9R1M7). Particulars: Compound concentration 10.0 uM.
In test [14] the target is Histamine H3 receptor (Homo sapiens) (UniProt Q9Y5N1). As to conditions: Compound concentration 10.0 uM.
Test [15] deals with Kappa-type opioid receptor (Homo sapiens) (UniProt P41145). As to conditions: Compound concentration 10.0 uM.
Test [16] concerns the target Purinergic P2Y (Rattus norvegicus) (UniProt O35811+Q9EPX4+P49651+Q63371+P41232+O35881+Q6GUG4). Particulars: Compound concentration 10.0 uM.

Structures are written as SMILES. pKi: −log10 of the molar value.

Sequence of Beta-1 adrenergic receptor (Homo sapiens) (P08588 whole entry, looked up): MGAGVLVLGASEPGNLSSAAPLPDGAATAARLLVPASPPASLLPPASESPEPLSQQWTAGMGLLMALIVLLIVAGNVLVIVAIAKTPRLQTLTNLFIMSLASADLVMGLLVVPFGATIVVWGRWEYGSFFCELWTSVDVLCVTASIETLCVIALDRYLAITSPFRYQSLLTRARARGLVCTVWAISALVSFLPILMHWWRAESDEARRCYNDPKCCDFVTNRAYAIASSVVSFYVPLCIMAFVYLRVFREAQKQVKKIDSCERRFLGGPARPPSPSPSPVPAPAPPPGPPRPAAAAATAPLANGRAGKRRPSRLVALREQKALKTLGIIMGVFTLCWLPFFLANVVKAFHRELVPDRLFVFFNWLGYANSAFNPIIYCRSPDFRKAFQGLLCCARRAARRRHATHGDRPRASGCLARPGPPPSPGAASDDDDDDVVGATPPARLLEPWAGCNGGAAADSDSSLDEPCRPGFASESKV
Sequence of Estrogen receptor (Homo sapiens) (P03372 whole entry): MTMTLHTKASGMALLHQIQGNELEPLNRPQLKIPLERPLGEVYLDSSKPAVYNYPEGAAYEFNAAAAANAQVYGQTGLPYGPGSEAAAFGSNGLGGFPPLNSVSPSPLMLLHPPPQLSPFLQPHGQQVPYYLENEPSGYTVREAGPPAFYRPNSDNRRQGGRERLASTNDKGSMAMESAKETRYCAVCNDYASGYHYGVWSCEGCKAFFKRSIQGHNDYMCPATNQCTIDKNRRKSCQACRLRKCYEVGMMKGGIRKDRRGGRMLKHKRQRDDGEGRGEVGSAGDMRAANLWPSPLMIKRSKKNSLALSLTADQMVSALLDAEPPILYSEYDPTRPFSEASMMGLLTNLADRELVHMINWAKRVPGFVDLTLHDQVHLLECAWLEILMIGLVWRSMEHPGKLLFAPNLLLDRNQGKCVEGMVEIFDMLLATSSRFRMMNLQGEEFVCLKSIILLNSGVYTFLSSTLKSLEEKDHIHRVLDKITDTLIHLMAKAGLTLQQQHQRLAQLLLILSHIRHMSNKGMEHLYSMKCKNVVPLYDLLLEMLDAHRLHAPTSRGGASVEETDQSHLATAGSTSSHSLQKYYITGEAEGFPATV
Sequence of Acetylcholine receptor subunit alpha (Homo sapiens) (P02708 whole entry): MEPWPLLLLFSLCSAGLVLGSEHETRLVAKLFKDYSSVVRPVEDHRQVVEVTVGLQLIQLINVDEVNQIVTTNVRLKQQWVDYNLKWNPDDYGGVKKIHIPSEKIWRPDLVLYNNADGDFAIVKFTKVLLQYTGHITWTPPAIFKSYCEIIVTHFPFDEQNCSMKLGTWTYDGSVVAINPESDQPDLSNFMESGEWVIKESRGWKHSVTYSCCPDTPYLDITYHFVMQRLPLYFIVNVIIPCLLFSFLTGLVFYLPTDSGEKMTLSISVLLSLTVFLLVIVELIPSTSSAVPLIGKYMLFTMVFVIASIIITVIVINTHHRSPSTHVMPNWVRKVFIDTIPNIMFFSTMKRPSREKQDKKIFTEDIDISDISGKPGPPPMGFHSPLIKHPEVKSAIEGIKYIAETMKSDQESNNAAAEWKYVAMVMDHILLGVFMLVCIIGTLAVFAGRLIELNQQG
Sequence of Adenosine receptor A3 (Homo sapiens) (P0DMS8 whole entry): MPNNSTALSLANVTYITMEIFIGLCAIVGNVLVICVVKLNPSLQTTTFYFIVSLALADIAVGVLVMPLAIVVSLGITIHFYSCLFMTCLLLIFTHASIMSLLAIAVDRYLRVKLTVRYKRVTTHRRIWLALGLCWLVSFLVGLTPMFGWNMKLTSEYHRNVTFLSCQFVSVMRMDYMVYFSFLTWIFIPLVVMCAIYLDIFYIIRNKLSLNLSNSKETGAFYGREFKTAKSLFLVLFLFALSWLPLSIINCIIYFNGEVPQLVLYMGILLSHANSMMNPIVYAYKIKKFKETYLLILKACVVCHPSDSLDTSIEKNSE
Sequence of D(3) dopamine receptor (Homo sapiens) (P35462 whole entry): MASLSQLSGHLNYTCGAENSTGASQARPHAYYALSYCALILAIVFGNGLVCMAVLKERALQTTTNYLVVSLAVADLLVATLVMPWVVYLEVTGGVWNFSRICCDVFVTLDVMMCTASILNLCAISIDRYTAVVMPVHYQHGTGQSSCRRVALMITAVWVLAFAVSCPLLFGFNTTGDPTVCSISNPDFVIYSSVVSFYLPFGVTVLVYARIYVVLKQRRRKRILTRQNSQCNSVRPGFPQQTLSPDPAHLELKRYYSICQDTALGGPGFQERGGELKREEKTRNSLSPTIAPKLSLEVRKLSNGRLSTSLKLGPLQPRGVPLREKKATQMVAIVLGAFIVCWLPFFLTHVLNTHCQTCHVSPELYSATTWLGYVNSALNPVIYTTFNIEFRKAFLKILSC
Sequence of 5-hydroxytryptamine receptor 1E (Homo sapiens) (P28566 whole entry): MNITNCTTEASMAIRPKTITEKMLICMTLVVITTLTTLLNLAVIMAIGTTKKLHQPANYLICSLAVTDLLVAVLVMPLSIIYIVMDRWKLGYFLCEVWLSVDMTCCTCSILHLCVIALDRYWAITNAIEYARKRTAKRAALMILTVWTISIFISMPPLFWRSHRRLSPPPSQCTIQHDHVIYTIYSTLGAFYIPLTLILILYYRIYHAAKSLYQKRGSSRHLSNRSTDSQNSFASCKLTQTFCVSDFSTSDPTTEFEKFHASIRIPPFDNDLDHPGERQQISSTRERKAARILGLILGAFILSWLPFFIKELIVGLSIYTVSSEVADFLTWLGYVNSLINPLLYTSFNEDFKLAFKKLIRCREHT
Sequence of Alpha-2C adrenergic receptor (P18825 whole entry): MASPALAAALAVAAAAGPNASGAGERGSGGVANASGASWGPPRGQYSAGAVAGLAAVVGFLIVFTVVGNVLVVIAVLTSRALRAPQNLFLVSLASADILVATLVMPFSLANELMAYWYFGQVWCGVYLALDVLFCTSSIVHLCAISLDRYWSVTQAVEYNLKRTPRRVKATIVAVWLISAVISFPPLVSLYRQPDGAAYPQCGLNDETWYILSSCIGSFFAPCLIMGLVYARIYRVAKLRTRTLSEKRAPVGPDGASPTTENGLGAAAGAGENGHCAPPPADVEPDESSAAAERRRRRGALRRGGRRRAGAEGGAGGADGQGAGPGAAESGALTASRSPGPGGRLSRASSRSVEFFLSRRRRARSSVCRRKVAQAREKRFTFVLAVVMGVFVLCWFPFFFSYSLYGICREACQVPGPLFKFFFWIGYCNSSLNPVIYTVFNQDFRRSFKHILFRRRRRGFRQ
Sequence of Platelet-activating factor receptor (Homo sapiens) (P25105 whole entry): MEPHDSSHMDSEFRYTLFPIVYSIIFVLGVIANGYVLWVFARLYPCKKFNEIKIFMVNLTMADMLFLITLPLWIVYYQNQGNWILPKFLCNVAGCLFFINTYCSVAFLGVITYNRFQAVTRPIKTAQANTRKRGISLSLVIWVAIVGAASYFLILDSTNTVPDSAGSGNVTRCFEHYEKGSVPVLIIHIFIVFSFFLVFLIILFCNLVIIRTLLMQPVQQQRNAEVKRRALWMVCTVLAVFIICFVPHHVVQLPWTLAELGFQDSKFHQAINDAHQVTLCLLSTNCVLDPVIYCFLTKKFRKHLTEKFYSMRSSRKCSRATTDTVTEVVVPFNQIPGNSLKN
Sequence of Histamine H3 receptor (Homo sapiens) (Q9Y5N1 whole entry): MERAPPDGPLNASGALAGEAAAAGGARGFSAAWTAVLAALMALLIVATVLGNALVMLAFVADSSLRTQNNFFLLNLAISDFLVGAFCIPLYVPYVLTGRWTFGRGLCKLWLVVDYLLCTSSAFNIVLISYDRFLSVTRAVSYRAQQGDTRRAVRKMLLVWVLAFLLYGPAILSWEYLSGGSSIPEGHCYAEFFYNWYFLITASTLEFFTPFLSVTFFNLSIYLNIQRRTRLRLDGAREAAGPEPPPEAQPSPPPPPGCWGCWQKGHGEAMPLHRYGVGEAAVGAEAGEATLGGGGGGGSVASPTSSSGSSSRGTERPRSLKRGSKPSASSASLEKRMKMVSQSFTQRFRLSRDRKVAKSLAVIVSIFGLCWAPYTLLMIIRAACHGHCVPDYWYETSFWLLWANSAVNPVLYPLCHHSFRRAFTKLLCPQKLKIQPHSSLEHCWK
Sequence of Sigma non-opioid intracellular receptor 1 (Homo sapiens) (Q99720 whole entry): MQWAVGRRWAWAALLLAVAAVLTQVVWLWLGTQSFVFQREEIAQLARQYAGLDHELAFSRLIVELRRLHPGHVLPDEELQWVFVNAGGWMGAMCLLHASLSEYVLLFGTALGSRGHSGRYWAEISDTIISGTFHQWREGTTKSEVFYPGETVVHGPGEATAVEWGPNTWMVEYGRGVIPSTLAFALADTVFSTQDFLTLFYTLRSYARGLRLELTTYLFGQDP
Sequence of Kappa-type opioid receptor (Homo sapiens) (P41145 whole entry): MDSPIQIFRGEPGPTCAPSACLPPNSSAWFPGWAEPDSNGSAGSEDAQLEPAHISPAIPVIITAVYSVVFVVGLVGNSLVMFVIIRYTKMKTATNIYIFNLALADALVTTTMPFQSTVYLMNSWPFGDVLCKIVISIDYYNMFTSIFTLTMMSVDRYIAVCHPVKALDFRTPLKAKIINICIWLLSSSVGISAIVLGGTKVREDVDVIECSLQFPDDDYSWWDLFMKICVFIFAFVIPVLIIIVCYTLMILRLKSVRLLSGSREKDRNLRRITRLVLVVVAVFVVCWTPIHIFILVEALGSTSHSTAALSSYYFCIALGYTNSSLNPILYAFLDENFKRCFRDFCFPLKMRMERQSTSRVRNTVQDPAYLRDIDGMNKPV
Sequence of B1 bradykinin receptor (Homo sapiens) (P46663 whole entry): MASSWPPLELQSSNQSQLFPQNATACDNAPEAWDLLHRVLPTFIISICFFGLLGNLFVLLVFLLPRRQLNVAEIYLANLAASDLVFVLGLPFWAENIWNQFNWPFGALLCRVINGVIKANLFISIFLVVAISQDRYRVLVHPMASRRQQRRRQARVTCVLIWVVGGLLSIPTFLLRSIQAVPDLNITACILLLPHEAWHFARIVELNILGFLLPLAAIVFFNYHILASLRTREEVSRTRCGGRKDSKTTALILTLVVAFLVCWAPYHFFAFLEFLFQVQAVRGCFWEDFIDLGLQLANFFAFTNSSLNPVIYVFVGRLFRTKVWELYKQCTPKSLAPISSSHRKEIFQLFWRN

For `NS(=O)(=O)c1cc(NC(=O)C2(c3ccccc3Cl)CC2)ccc1Oc1cccc(Cl)c1` [BAY-207], the negative-log Ki (pKi) in [1] is 6.18. The inhibition in test [2] was -1.46%.

For the compound `NS(=O)(=O)c1cc(NC(=O)Cc2ccccc2)ccc1Oc1cccc(Cl)c1` [BAY-1797], the inhibition was 11% in test [3]; -1% in the test listed under Rattus norvegicus; 24% in the test filed under Mus musculus; -4% in [4]; -2% in test [5]; 5% in the test listed under Oryctolagus cuniculus. In addition, the inhibition is 3% in test [6]; 4% in test [7]; 47% in test [8]; 3% in test [9]; 28% in test [10]; 5% in [11]. Further, the inhibition in test [12] is 0%; in test [13], 23%; in test [14] it was 0%; in [15], 10%; in test [16] it was 14%.

The pKi is the Ki on a negative log10 scale, so that one unit is a factor of ten. One may read the inhibition as the change of the read-out against control, counted positive when it falls.

The record behind these values is ChEMBL document CHEMBL4507265 (2021).
